Measurements taken from patent US7034013B2 (priority 2001, dated 2006).
In brackets after ≈: the same amount, converted by molar mass. Read-outs that look alike come from different tables or passages of the source.

Tests used:
[1] = for concentration of uncomplexed propofol in solution / concentration of uncomplexed propofol in solution, % of the total: binding constant 3800 M^−1
physchem = conditions: water, solubility in water
[2] = in the absence of a solubilizing agent; cited from earlier work
[3] = intravenous injection of a therapeutic dose; cited from earlier work
hemolysis = conditions: in concentrations typically used to solubilize pharmaceutical formulations; FIG. 1 (Thompson 1997); cited from earlier work
[4] = CAPTISOL cyclodextrin 14.4% w/v (0.0665M)
[5] = CAPTISOL cyclodextrin 50% w/v (0.231M)

Row | Compound | solubility in water [µg/mL] | concentration of uncomplexed propofol in solution [1, 4] [M] | concentration of uncomplexed propofol in solution, % of the total [1, 4] | concentration of uncomplexed propofol in solution [1, 5] [M] | concentration of uncomplexed propofol in solution, % of the total [1, 5] | solubility (physchem) [µg/mL] | water solubility [2] | time to induction of anesthesia from the start of injection [3] [s] | CAPTISOL® cyclodextrin concentration required to raise aqueous propofol from 0.15 mg/mL to 10 mg/mL ([1]; propofol 10 mg/mL) [% w/v] | hemolytic behavior (hemolysis)
1 | CC(C)c1cccc(C(C)C)c1O [propofol, 2,6-diisopropylphenol] | 150 (≈ 841 µM) | ~0.00124 | about 2.21% | ~0.000084 | about 0.15% | ~150 (≈ 841 µM) | approximately 0.154 mg/mL | ≤ 40 | – | –
2 | Sulfobutyl Ether-β-Cyclodextrin [CAPTISOL® cyclodextrin] | – | – | – | – | – | – | – | – | 15 | essentially no hemolytic behavior
